The subject of experiment [1] is bovine aortic endothelial cells. Nature of the experiment: xCELLigence cell impedance in bovine aortic endothelial cells. The experiment is classed as cell-based. Particulars: test compounds at 62.5, 125 or 250 μM; FIG. 9; negative response = indirect vasodilator. As for the experimental part: (§1) Briefly, 50 μl of cell culture medium (DMEM low glucose supplemented with 10% fetal bovine serum at 37° C.) was added to each well of an E-Plate 96 (Roche), and the background impedance in each well was measured. 50 μl of A-10 cell suspension (10,000 cells/well) was then added to the appropriate wells of the E-Plate 96. Cell index was monitored for each well of the E-Plate 96 in RTCA SP Station within the cell culture incubator. After overnight incubation for 16-20 hours at 5% CO2 and 95% humidity, 100 μl of test compound solution (test compounds were prepared in DMSO and diluted with cell culture medium to a final DMSO concentration of 0.25%) was added to the appropriate wells of the E-Plate 96 and cell index values were measured immediately following compound treatment every 20 seconds for 3 hours. Cell index value is baseline-corrected by subtracting the cell index of vehicle-treated cells and normalized by dividing by the cell index at the time point immediately before compound addition. Baseline normalized cell index as a function of time is plotted using Roche RTCA software.
The xCELLigence SP system was also used to measure changes in cellular impedance following the treatment of bovine aortic endothelial cells (European Collection of Cell Cultures) with test compound. The method employed is the same for the A10 embryonic vascular smooth muscle cells described above but with the cell culture medium supplemented with 15% fetal bovine serum instead of 10%.
Compounds may interact with vascular endothelial cells causing the release of substances such as nitric oxide and endothelium-derived hyperpolarising factor, which in turn act on the vascular smooth muscle cells causing vasodilatation and lowering blood pressure. Such compounds are termed indirect vasodilators.

In experiment [2] the test system is Rat (NRK-52E) renal proximal tubule cells. Nature of the experiment: Rescue of renal proximal tubule cells from cisplatin cytotoxicity (WST-8/CCK-8). Conditions: test compound 30 μM; cisplatin 5 μg/ml; 24 or 48 hours; FIG. 10. The experiment is classed as cell-based. The method, then: Rat (NRK-52E) renal proximal tubule cells grown in DMEM+10% FBS+1% NEAA+2 mM glutamine were placed in 96 well plates at 10,000 cells/well and incubated at 37° C. with 5% CO2 overnight. Test compounds at a concentration of 30 μM were incubated with human or rat renal proximal tubule cells for 2 hours at 37° C. and 5% CO2. Cis-diamminedichloroplatinum[…] (cisplatin) was then added at […] and each cell population was then incubated for 24 or 48 hours at 37° C. with 5% CO2. Test compounds were maintained at their original concentrations. To assay the cytotoxic effects of cisplatin on the rat renal proximal tubule cells a highly water-soluble tetrazolium salt, WST-8, which is reduced by dehydrogenases in cells to produce formazan, a water-soluble, yellow-coloured indicator dye was used following the manufacturer's instructions (specifically the Cell Count Kit-8 (CCK-8) assay from Sigma). Plate absorbance of the WST-8 (CCK-8) reagent was then measured at 450 nm using a Thermo Scientific Multiskan EX plate reader.

In experiment [3] the test system is A10 embryonic vascular smooth muscle cells. Nature of the experiment: xCELLigence cell impedance in A10 vascular smooth muscle cells. The experiment is classed as cell-based. Conditions: test compounds at 62.5, 125 or 250 μM; FIG. 8; negative response = direct vasodilator.
Source text: The xCELLigence SP system (Roche) was used to measure changes in cellular impedance (cell index) following the treatment of A10 embryonic vascular smooth muscle cells (ATCC, CRL-1476) with test compound. In this in vitro cell based experimental system a negative impedance profile correlates with blood pressure reduction in rats—a decrease in impedance is associated with vasodilatation and an increase in impedance is associated with vasoconstriction (Stallaert W, Dorn J F, van der Westhuizen E, Audet M & Bouvier M. Impedance responses reveal β-adrenergic signaling […] and allow classification of ligands with distinct signalling profiles PLoS ONE 2012; 7(1):e29420, doi:10.1371/journal.pone.0029420).
as §1
Compounds may achieve reductions in blood pressure by interaction with vascular smooth muscle cells causing these cells to relax resulting in vasodilatation and a reduction in blood pressure. These are termed direct vasodilators.

For experiment [4], the system named is SHR. The experiment in a line: Kidney fibrosis in SHR (Masson's trichrome). The experiment is classed as in vivo, rat. Particulars: SHR on 2.2% salt diet; 500 pmol/kg/min; 4 weeks; FIG. 12, *p<0.05. The source says:
(§2) Fourteen week old SHR (on a 2.2% salt diet; Glen Forrest Stockfeeders) were randomly assigned to zero time control (14 week old rats), test compound treatment drinking solution (500 pmol/kg/min in deionised distilled water) or control drinking solution (5% ethanol in deionised distilled water). The rats assigned to zero time control group (14 week old rats) were anaesthetised and had their kidneys and liver harvested while rats assigned to control and test compound treatment were weighed twice weekly and had their drinking solution intake monitored to allow adjustment of the test compound concentration in the drinking solution to maintain a constant dose over the 4-week study period. Blood pressure was measured twice weekly by tail cuff plethysmography (PowerLab, ADInstruments, Castle Hill, NSW, Australia). After 4 weeks rats were anaesthetised (18 week old rats), and their kidneys and liver harvested. To quantitate tissue fibrosis and/or fat content, tissue slices ≤3 mm thick were fixed in 10% buffered formalin for 24 hours, processed and embedded in paraffin. Three micron transverse sections were stained using Masson's trichrome stain. A minimum of 20 random fields at magnification ×20 from transverse sections (5 at each of 2 levels) were digitized and the degree of fibrosis and fat content determined as a percent of field area of each digitized image using Image-Pro Plus V.7 (Media Cybernetics, Bethesda, Md., USA) then averaged to determine the level of fibrosis and/or fat content for each rat.

Experiment [5] concerns SHR. Nature of the experiment: Hepatic fibrosis in SHR (Masson's trichrome). The experiment is classed as in vivo, rat. Particulars: for Fibrosis in the liver compared to 18 week controls: SHR, 500 pmol/kg/min, 4 weeks, FIG. 13, *p<0.05, **p<0.025, ***p<0.01.
Source text: as §2

For `Cc1ccsc1-c1ccc(-c2cccc(O)c2)c(CCC(N)=O)c1` [Compound P43, 3-[3′-Hydroxy-4-(3-methylthiophen-2-yl)biphenyl-2-yl]propanamide], the “impedance response for bovine aortic endothelial cells” value in experiment [1] is “Negative impedance responses”. In experiment [2], the “Cisplatin induced cell death in renal proximal tubular cells” value (“Cisplatin induced cell death” for short) was “decreased”.

Take `Cn1nccc1-c1ccc(-c2cccc(O)c2)c(CCC(N)=O)c1` [Compound P38, 3-[3′-Hydroxy-4-(1-methyl-1H-pyrazol-5-yl)biphenyl-2-yl]propanamide]: the “impedance response for bovine aortic endothelial cells” value in experiment [1] is “Negative impedance responses”. Besides, the “Cisplatin induced cell death” value in experiment [2] is given as “decreased”.

On to `Cc1n[nH]cc1-c1ccc(-c2cccc(O)c2)c(CCC(N)=O)c1` [Compound P45, 3-[3′-Hydroxy-4-(3-methyl-1H-pyrazol-4-yl)biphenyl-2-yl]propanamide], for which, in experiment [2], the “Cisplatin induced cell death” value is given as “decreased”.

Regarding `NC(=O)CCc1cc(-c2cccc(C(=O)O)c2)ccc1-c1cccc(O)c1` [Compound P47, 3′-(3-Amino-3-oxopropyl)-3″-hydroxy-1,1′:4′,1″-terphenyl-3-carboxylic Acid], the “impedance response for bovine aortic endothelial cells” value in experiment [1] is “Negative impedance responses”.

As for `NC(=O)CCc1cc(-c2ccncc2)ccc1-c1cccc(O)c1` [Compound P6, 3-[3′-Hydroxy-4-(pyridin-4-yl)biphenyl-2-yl]propanamide], in experiment [1], the “impedance response for bovine aortic endothelial cells” value is “Negative impedance responses”. The “Cisplatin induced cell death” value in experiment [2] is listed as “decreased”.

As to `NC(=O)CCc1cc(-n2cccc2)ccc1-c1cccc(O)c1` [Compound P9, 3-(3′-Hydroxy-4-(1H-pyrrol-1-yl)-[1,1′-biphenyl]-2-yl)propanamide], the “impedance response for A10 vascular smooth muscle cells” value in experiment [3] was “Negative impedance responses”. Further, the “impedance response for bovine aortic endothelial cells” value in experiment [1] was “Negative impedance responses”. In addition, in experiment [2], the “Cisplatin induced cell death” value is on record as “decreased”. In addition, in experiment [4], the “Fibrosis in the kidney compared to 18 week controls” value is reported as “decreased”. Further, the “Tissue architecture of portal tracts in Masson's tri-chrome stained liver sections” value in experiment [5] (SHR treated rats vs control, FIG. 14) is reported as “normal tissue architecture has been restored”. Also, the “Fibrosis in the liver compared to 18 week controls” value in experiment [5] is on record as “decreased”.

As to `Cc1cscc1-c1ccc(-c2cccc(O)c2)c(CCC(N)=O)c1` [Compound P44, 3-[3′-Hydroxy-4-(4-methylthiophen-3-yl)biphenyl-2-yl]propanamide], the “impedance response for bovine aortic endothelial cells” value in experiment [1] was “Negative impedance responses”. For the same compound, the “Cisplatin induced cell death” value in experiment [2] is “decreased”.

As to `Cc1cccc(-c2ccc(-c3cccc(O)c3)c(CCC(N)=O)c2)c1` [Compound P46, 3-(3-Hydroxy-3″-methyl-1,1′:4′,1″-terphenyl-2′-yl)propanamide], the “impedance response for A10 vascular smooth muscle cells” value in experiment [3] is “Negative impedance responses”. Moreover, the “impedance response for bovine aortic endothelial cells” value in experiment [1] is reported as “Negative impedance responses”. Moreover, the “Cisplatin induced cell death” value in experiment [2] is “decreased”.

Turning to `Cc1n[nH]c(C)c1-c1ccc(-c2cccc(O)c2)c(CCC(N)=O)c1` [Compound P42, 3-[4-(3,5-Dimethyl-1H-pyrazol-4-yl)-3′-hydroxybiphenyl-2-yl]propanamide], the “impedance response for bovine aortic endothelial cells” value in experiment [1] is listed as “Negative impedance responses”. Further, the “Cisplatin induced cell death” value in experiment [2] is recorded as “decreased”.

For the compound `COc1cccc(-c2ccc(-c3cccc(O)c3)c(CCC(N)=O)c2)c1` [Compound P50, 3-(3-Hydroxy-3″-methoxy-1,1′:4′,1″-terphenyl-2′-yl)propanamide], the “impedance response for bovine aortic endothelial cells” value in experiment [1] is given as “Negative impedance responses”. In addition, the “Cisplatin induced cell death” value in experiment [2] is given as “decreased”.

Regarding `NC(=O)CCc1cc(-c2cccc(O)c2)ccc1-c1cccc(O)c1` [Compound P48, 3-(3,3″-Dihydroxy-1,1′:4′,1″-terphenyl-2′-yl)propanamide], the “impedance response for bovine aortic endothelial cells” value in experiment [1] is “Negative impedance responses”.

With `NC(=O)CCc1cc(-c2ccc(F)cc2)ccc1-c1cccc(O)c1` [Compound P3, 3-(4″-Fluoro-3-hydroxy-1,1′:4′,1″-terphenyl-2′-yl)propanamide], the “impedance response for A10 vascular smooth muscle cells” value in experiment [3] is listed as “Negative impedance responses”. Also, the “impedance response for bovine aortic endothelial cells” value in experiment [1] is given as “Negative impedance responses”. Moreover, the “Cisplatin induced cell death” value in experiment [2] is “decreased”.

Consider `NC(=O)CCc1cc(-c2ccccn2)ccc1-c1cccc(O)c1` [Compound P4, 3-[3′-Hydroxy-4-(pyridin-2-yl)biphenyl-2-yl]propanamide], for which the “impedance response for bovine aortic endothelial cells” value in experiment [1] was “Negative impedance responses”. In addition, the “Cisplatin induced cell death” value in experiment [2] is “decreased”.

With `NC(=O)CCc1cc(-c2ccc(N)cc2)ccc1-c1cccc(O)c1` [Compound P49, 3-(4″-Amino-3-hydroxy-1,1′:4′,1″-terphenyl-2′-yl)propanamide], in experiment [1], the “impedance response for bovine aortic endothelial cells” value is given as “Negative impedance responses”. For the same compound, in experiment [2], the “Cisplatin induced cell death” value is “decreased”.

As to `Cc1noc(C)c1-c1ccc(-c2cccc(O)c2)c(CCC(N)=O)c1` [Compound P41, 3-(4-(3,5-Dimethylisoxazol-4-yl)-3′-hydroxy-[1,1′-biphenyl]-2-yl)propanamide], the “impedance response for bovine aortic endothelial cells” value in experiment [1] is on record as “Negative impedance responses”. Besides, the “Cisplatin induced cell death” value in experiment [2] was “decreased”.

For `NC(=O)CCc1cc(-c2cc(F)cc(F)c2)ccc1-c1cccc(O)c1` [Compound P33, 3-(3″,5″-Difluoro-3-hydroxy-1,1′:4′,1″-terphenyl-2′-yl)propanamide], the “impedance response for A10 vascular smooth muscle cells” value in experiment [3] is on record as “Negative impedance responses”. Besides, in experiment [1], the “impedance response for bovine aortic endothelial cells” value is “Negative impedance responses”. In addition, the “Cisplatin induced cell death” value in experiment [2] is “decreased”.

In the case of `NC(=O)CCc1cc(-c2cccc(F)c2)ccc1-c1cccc(O)c1` [Compound P1, 3-(3″-Fluoro-3-hydroxy-1,1′:4′,1′-terphenyl-2′-yl)propanamide], in experiment [1], the “impedance response for bovine aortic endothelial cells” value was “Negative impedance responses”. In addition, the “Cisplatin induced cell death” value in experiment [2] is “decreased”.

As to `NC(=O)CCc1cc(-c2ccoc2)ccc1-c1cccc(O)c1` [Compound P11, 3-(4-(Furan-3-yl)-3′-hydroxy-[1,1′-biphenyl]-2-yl)propanamide], the “impedance response for A10 vascular smooth muscle cells” value in experiment [3] is given as “Negative impedance responses”. For the same compound, the “impedance response for bovine aortic endothelial cells” value in experiment [1] is given as “Negative impedance responses”. Also, the “Cisplatin induced cell death” value in experiment [2] is “decreased”. In experiment [4], the “Fibrosis in the kidney compared to 18 week controls” value is on record as “decreased”. Besides, in experiment [5], the “Fibrosis in the liver compared to 18 week controls” value is recorded as “decreased”.
